Source: article PMC6151695, “Novel Selective Estrogen Receptor Ligand Conjugates Incorporating Endoxifen-Combretastatin and Cyclofenil-Combretastatin Hybrid Scaffolds: Synthesis and Biochemical Evaluation” (Molecules : A Journal of Synthetic Chemistry and Natural …, 2017)
Like-named read-outs stand apart in the source and are kept apart here.

Experiments:
[1] = system: MCF-7 human breast cancer cell line; assay: Alamar Blue assay for antiproliferative effects; format: cell-based; conditions: Homo sapiens
MCF-7 cells [2] = assay: Flow cytometry (propidium iodide) cell cycle and apoptosis analysis in MCF-7; format: cell-based, human; conditions: for G2/M-arrest / apoptosis: MCF-7, 10 µM, 72 h; for apoptosis (in words): MCF-7, 72 h
Method: Flow cytometry with propidium iodide stained cells was carried out to analyse the percentage of cells in each stage of the cell cycle and the number of apoptotic or dead cells. Samples were treated for 72 h at 10 µM. […] […].
(§1) MCF-7 cells were seeded at a density of 5 × 10^4 cells/well in a 12-well plate and treated with the indicated compounds for 72 h. Samples were then centrifuged at 650× g for 5 min and resuspended in 100 µL ice-cold PBS. Ice-cold 70% (v/v) ethanol (1 mL) was then added to fix the samples overnight at 4 °C. Samples were subsequently centrifuged at 800× g for 10 min and resuspended in 200 µL PBS. RNase A (12.5 µL of 10 mg/mL) and propidium iodide (37.5 µL of 1 mg/ mL) were added to samples which were then incubated for 30 min at 37°C. Cell cycle analysis was performed at 488 nm using a FACS Calibur flow cytometer (Becton Dickinson, Franklin Lakes, NJ, USA). The Macintosh-based application CellQuest was then used to analyse the data of 10,000 gated cells once cell debris had been excluded. Data points represent the mean ± S.E.M. of three independent experiments.

[3] = system: peripheral blood mononuclear cells (PBMCs); assay: Flow cytometry (propidium iodide) in PBMCs of healthy donors; format: cell-based, human; conditions: 10 µM, 72 h
Method: Next, the same cohort of compounds was tested on peripheral blood mononuclear cells (PBMCs) isolated from the blood of healthy donors. Cells were treated with 10 µM of each compound for 72 h and subjected to flow cytometry.
as §1
Fresh peripheral blood was collected from healthy donors and diluted 1:3 with RPMI medium and added to half the equivalent volume of Lymphoprep. Samples were centrifuged at 750× g for 30 min to form a Ficoll gradient. The white buffy layer containing the peripheral blood mononuclear cells was removed, diluted to a volume of 50 mL with medium and centrifuged again for 10 min at 650× g. Cells were then seeded at a density of 1 × 10^6 cells in 1 mL of RPMI medium supplemented with 10% FBS, 2 mM L-glutamine and 100 U/mL penicillin and 100 µg/mL streptomycin.

MCF-7 cells [4] = assay: Lactate dehydrogenase (LDH) assay for cytotoxicity
human ERα = biological target: T1, human ERα (Homo sapiens, UniProt P03372); assay: Estrogen receptor fluorescence polarisation competitive binding assay, ERα; conditions: for Selectivity (α/β): ratio of RBA values ERα relative to ERβ; for ERα RBA: relative binding affinity, estradiol (5.7 nM) = 100%
T1 construct: purchased Invitrogen
T1 sequence (P03372 1-595): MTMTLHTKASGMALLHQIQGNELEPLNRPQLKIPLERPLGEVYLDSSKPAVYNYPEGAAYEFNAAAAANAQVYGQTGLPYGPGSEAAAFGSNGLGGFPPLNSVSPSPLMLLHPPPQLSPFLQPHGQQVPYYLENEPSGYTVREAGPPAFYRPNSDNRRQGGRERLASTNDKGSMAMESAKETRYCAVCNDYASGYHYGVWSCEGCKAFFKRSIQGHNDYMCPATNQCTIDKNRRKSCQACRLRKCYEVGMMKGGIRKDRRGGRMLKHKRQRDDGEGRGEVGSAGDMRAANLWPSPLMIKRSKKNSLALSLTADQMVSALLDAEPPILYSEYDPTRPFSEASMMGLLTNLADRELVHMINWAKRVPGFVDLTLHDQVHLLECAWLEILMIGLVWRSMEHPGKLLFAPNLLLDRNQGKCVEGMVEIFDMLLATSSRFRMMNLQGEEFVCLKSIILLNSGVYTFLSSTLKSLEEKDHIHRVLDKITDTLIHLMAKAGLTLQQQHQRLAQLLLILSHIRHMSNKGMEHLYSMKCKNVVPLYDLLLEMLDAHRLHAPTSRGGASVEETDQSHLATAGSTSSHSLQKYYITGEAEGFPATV

human ERβ = biological target: T2, human ERβ (Homo sapiens, UniProt Q92731); assay: Estrogen receptor fluorescence polarisation competitive binding assay, ERβ
T2 construct: purchased Invitrogen
T2 sequence (Q92731 whole entry): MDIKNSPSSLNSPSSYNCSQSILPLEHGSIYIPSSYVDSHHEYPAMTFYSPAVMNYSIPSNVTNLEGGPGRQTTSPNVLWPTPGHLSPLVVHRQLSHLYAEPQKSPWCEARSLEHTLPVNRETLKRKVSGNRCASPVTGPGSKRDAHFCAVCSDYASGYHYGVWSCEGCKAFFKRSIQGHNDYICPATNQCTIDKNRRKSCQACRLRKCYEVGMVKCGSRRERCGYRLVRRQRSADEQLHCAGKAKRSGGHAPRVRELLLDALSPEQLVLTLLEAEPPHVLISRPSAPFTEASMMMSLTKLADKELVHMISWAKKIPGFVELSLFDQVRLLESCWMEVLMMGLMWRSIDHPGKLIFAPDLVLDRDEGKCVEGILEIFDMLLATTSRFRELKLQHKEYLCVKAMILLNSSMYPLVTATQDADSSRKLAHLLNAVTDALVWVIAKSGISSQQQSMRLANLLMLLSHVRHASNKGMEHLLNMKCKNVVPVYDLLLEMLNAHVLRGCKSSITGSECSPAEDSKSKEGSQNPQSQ

[5] = HPLC stability study in phosphate buffer
MCF-7 cells [6] = conditions: human
in vitro = conditions: plasma
[7] = MCF7, 72 h, read-out: IC50 (μM), antiproliferative effects
[8] = MCF7, 72 h, MCF-7, 72 h, Alamar Blue, read-out: IC50 (μM), antiproliferative effects
[9] = competitive binding, fluorescence polarisation, read-out: ERα IC50
[10] = competitive binding, fluorescence polarisation, read-out: ERβ IC50

Compound	IC50 [1, 8] [µM]	IC50 (human ERα; [9]) [nM]	Selectivity (α/β) (human ERα)	ERα RBA (human ERα) [%]	IC50 (human ERβ; [10]) [nM]	apoptosis (MCF-7 cells [2]) [%]	apoptosis (in words) (MCF-7 cells [2])	apoptosis / toxic effects in PBMCs (in words) [3]	also measured
COc1ccc(/C=C(/C(=O)N(C)CCOc2ccc(C(=C3CCCCCCC3)c3ccc(O)cc3)cc2)c2cc(OC)c(OC)c(OC)c2)cc1O [Compound 13d, (E)-N-(2-(4-(Cyclooctylidene(4-hydroxyphenyl)methyl)phenoxy)ethyl)-3-(3-hydroxy-4-methoxyphenyl)-N-methyl-2-(3,4,5-trimethoxyphenyl)acrylamide]						36	potently induce apoptosis	lack of toxicity	IC50 [1, 7]: 0.346 µM; G2/M-arrest (MCF-7 cells [2]): 27%
COc1ccc(/C=C\c2cc(OC)c(OC)c(OC)c2)cc1O [CA4, Combretastatin A-4, reference compound]	0.008								cytotoxicity (LDH assay) (MCF-7 cells [4]): 13%
CCC(=C(c1ccc(O)cc1)c1ccc(OCCN(C)C(=O)/C(=C/c2cc(OC)c(OC)c(OC)c2)c2ccc(OC)c(O)c2)cc1)c1ccccc1 (mixture of isomers) [Compound 3i, (E/Z)-2-(3-Hydroxy-4-methoxyphenyl)-N-(2-(4-((Z)-1-(4-hydroxyphenyl)-2-phenylbut-1-en-1-yl)phenoxy)-ethyl)-N-methyl-3-(3,4,5-trimethoxyphenyl)acrylamide]	4.2	182	2.44	3.13	436		potently induce apoptosis	lack of toxicity	
CC/C(=C(\c1ccc(O)cc1)c1ccc(OCCN(C)C(=O)CCC(=O)Oc2cc(/C=C\c3cc(OC)c(OC)c(OC)c3)ccc2OC)cc1)c1ccccc1 [Compound 16b, N-(2-{4-[(Z)-1-(4-Hydroxyphenyl)-2-phenylbut-1-enyl]phenoxy}ethyl)-N-methyl succinamic acid 2-methoxy-5-[(Z)-2-(3,4,5-trimethoxyphenyl)vinyl]phenyl ester]									IC50 [1, 7]: 0.0057 µM; cytotoxicity (LDH assay) (MCF-7 cells [6]): 4.1%; remained intact in plasma at 12 h: 77%; half-life (in vitro): > 48 h; remained at 12 h ([5]; pH range 4–9, 12 h): > 90%
COc1ccc(/C=C(/C(=O)N(C)CCOc2ccc(C(=C3CCC(C)CC3)c3ccc(O)cc3)cc2)c2cc(OC)c(OC)c(OC)c2)cc1O (stereo not shown) [Compound 13e, (E)-3-(3-Hydroxy-4-methoxyphenyl)-N-(2-(4-((4-hydroxyphenyl)(4-methylcyclohexaneylidene)methyl)-phenoxy)ethyl)-N-methyl-2-(3,4,5-trimethoxyphenyl) acrylamide]			12.3	30		48	potently induce apoptosis	lack of toxicity	IC50 [1, 7]: 0.182 µM; IC50 ([1]; MCF7, read-out: IC50, antiproliferative activity): 0.187 µM; IC50 (human ERα): 19 nM; selectivity towards ERα over ERβ (human ERα; binding affinity preference): 12 fold; IC50 (human ERβ): 229 nM; G2/M-arrest (MCF-7 cells [2]): 18%
N-(2-{4-[1,2-Bis-(4-hydroxyphenyl)but-1-enyl]phenoxy}ethyl)-N-methylsuccinamic acid [Compound 14c]		11.3	0.60	50.44	6.7				increase in binding affinity compared to 4-hydroxytamoxifen (human ERα; in both ER isoforms): approximately 3 fold
CNCCOc1ccc(C(=C2CCCCCC2)c2ccc(O)cc2)cc1 [Compound 11c, 4-(Cycloheptylidene(4-(2-(methylamino)ethoxy)phenyl)methyl)phenol]	1.38	1740	0.12	0.328	199	79.7 ± 5.2	potently induce apoptosis	induced apoptosis in PBMCs	

More lines, main results first:

IC50 [1, 8] [µM]	IC50 (human ERα; [9]) [nM]	Selectivity (α/β) (human ERα)	ERα RBA (human ERα) [%]	IC50 (human ERβ; [10]) [nM]	Compound	apoptosis (MCF-7 cells [2]) [%]	apoptosis (in words) (MCF-7 cells [2])	apoptosis / toxic effects in PBMCs (in words) [3]	also measured
	70.9	1.29	8.04	90.1	CC/C(=C(\c1ccccc1)c1ccc(OCCN(C)C(=O)CCC(=O)Oc2cc(/C=C(/C(=O)OC)c3cc(OC)c(OC)c(OC)c3)ccc2OC)cc1)c1ccccc1 [Compound 16c, N-{2-[4-((Z)-1,2-Diphenylbut-1-enyl)phenoxy]ethyl}-N-methylsuccinamic acid 2-methoxy-5-[(E)-2-methoxycarbonyl-2-(3,4,5-trimethoxyphenyl)vinyl]phenyl ester]				half-life at 14.6 µg/mL ([5]; half-life, pH range 4–9): > 20 h
3.23	170	0.67	3.35	112	CNCCOc1ccc(C(=C2CCCCCCC2)c2ccc(O)cc2)cc1 [Compound 11d, 4-(Cyclooctylidene(4-(2-(methylamino)ethoxy)phenyl)methyl)phenol]				
0.029	47	2.55	12.1	118	CC/C(=C(\c1ccc(O)cc1)c1ccc(OCCNC)cc1)c1ccccc1 [Endoxifen]				cytotoxicity (LDH assay) (MCF-7 cells [4]): 23%
1.77	3160	0.02	0.180	67	CNCCOc1ccc(C(=C2CCC(C)CC2)c2ccc(O)cc2)cc1 (stereo not shown) [Compound 11e, 4-((4-(2-(Methylamino)ethoxy)phenyl)(4-methylcyclohexaneylidene)methyl)phenol]	76	potently induce apoptosis	induced apoptosis in PBMCs	
